Experimental data published in ChEMBL document CHEMBL1201862, “PubChem BioAssay data set” (2004).
Active and inactive are the calls of the source.

Legend:
[1] = target: Cytochrome P450 2C9 (Homo sapiens, UniProt P11712)
[2] = microbe, parasite or virus in culture; format: functional; conditions: Mycobacterium tuberculosis
[3] = target: T1, Sentrin-specific protease 7 (Homo sapiens, UniProt Q9BQF6); format: functional;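 note: Luminescence-based dose-response confirmation of ultra-high-throughput screening hits, measuring inhibition of SENP7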
T1 sequence (Q9BQF6 whole entry): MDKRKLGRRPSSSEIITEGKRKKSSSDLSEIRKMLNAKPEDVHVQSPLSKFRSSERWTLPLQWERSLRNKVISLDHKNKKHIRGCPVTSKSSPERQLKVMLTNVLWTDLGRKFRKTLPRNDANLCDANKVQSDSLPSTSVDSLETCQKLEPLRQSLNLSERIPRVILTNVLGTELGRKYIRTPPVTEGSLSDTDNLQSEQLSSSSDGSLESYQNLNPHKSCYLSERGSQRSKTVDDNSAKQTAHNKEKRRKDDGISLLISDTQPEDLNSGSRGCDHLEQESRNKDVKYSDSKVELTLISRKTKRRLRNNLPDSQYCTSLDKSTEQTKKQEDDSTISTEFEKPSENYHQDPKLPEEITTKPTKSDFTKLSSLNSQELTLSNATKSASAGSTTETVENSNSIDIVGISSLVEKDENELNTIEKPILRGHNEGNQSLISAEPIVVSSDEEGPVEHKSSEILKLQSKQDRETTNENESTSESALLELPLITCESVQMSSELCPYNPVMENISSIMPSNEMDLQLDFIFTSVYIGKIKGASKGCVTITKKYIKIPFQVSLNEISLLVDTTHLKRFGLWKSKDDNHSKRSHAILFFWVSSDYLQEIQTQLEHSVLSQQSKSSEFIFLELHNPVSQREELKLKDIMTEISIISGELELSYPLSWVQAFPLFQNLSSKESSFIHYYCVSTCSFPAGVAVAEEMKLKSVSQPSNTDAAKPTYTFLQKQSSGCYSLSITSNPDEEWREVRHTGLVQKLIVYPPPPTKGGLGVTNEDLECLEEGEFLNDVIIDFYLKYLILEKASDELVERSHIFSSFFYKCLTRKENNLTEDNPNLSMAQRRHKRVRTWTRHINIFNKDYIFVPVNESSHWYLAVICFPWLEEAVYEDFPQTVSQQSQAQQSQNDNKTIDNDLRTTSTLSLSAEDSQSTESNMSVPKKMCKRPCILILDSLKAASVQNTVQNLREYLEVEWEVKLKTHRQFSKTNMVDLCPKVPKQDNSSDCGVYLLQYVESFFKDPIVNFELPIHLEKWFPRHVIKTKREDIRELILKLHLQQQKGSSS

[4] = target: T2, Caspase-3 (Homo sapiens, UniProt P42574); format: functional;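 note: Dose-response selectivity test against caspase-3 for candidate inhibitors of sentrin-specific proteases (SENPs)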
T2 sequence (P42574 whole entry): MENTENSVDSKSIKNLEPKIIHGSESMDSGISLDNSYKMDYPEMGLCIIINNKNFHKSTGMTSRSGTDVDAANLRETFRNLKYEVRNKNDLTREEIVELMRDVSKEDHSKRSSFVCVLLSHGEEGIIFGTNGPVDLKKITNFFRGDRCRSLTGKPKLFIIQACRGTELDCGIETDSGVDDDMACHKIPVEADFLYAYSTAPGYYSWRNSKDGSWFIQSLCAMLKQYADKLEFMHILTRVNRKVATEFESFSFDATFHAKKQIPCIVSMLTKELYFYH

[5] = target: T3, Sentrin-specific protease 8 (Homo sapiens, UniProt Q96LD8); format: functional;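 note: luminescence read-out of SENP8 inhibition, dose-response confirmation following an ultra-high-throughput screen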
T3 sequence (Q96LD8 whole entry): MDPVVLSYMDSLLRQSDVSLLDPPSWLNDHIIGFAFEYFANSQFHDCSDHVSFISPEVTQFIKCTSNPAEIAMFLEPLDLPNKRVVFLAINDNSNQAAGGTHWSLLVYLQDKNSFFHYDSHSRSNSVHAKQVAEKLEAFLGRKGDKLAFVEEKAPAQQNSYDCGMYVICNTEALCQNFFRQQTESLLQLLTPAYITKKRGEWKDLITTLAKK

[6] = target: T4, Sentrin-specific protease 6 (Homo sapiens, UniProt Q9GZR1); format: functional;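 note: Luminescence-based dose-response confirmatory assay of SENP6 inhibition, following up an ultra-high-throughput screen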
T4 sequence (Q9GZR1 whole entry): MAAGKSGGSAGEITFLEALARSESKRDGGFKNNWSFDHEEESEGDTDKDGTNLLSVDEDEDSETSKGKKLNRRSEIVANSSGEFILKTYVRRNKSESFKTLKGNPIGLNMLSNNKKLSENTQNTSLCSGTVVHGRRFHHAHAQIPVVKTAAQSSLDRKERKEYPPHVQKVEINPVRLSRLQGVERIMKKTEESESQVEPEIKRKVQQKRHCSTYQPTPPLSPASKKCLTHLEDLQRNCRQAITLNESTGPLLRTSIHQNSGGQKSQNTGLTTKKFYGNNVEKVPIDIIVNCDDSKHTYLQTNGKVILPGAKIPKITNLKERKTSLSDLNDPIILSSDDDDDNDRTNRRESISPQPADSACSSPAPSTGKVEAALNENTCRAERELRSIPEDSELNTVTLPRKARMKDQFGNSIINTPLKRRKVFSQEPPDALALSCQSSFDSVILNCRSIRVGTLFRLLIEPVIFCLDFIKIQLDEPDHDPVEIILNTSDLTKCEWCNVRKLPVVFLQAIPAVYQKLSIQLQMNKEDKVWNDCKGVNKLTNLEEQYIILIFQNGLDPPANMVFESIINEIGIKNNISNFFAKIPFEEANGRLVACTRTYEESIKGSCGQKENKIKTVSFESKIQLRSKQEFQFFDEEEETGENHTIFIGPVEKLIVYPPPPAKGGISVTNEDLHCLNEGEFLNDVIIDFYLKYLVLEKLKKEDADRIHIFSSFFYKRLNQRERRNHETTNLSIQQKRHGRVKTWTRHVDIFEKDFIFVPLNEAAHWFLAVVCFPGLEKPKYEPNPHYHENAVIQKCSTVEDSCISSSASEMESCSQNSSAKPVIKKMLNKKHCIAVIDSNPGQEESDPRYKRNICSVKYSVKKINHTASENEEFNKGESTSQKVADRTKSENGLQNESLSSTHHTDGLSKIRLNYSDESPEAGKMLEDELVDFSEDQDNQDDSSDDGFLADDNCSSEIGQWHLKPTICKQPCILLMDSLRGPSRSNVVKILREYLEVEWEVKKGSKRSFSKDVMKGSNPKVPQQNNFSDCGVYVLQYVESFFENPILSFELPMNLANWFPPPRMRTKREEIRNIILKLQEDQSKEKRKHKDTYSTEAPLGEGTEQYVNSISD

[7] = Luminescence Cell-Based Dose Retest to Confirm Inhibitors of Cancer Stem Cells. [Related pubchem assays (depositor defined):AID2717, AID2721]; format: functional; conditions: Homo sapiens
[8] = system: INS1; experiment: beta cell apoptosis inhibitors, cytokine rescue, dose response, luminescence, retest (AID 449756); format: functional, cell-based; conditions: Rattus norvegicus;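 note: cell death triggered by IL-1 beta plus TNF-alpha plus IFN-gamma mixture; protective hits raise ATP signal compared with cytokine alone wells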

Sequence of Cytochrome P450 2C9 (P11712 whole entry): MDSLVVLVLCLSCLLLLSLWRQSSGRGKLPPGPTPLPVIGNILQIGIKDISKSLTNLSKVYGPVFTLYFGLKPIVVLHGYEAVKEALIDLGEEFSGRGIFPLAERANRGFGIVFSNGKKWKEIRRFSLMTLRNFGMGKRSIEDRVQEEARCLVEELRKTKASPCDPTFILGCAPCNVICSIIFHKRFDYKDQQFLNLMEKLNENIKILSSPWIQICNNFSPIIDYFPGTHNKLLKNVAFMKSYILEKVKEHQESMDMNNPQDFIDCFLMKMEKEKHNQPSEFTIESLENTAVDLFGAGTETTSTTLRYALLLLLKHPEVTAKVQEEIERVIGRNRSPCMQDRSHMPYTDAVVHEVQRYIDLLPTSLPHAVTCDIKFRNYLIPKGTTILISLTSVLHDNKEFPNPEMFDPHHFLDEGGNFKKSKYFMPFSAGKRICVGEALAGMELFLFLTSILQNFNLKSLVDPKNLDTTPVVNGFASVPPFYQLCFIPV

Row | Structure (SMILES) | AC50 [1] | CC50 [2] | IC50 [3] | IC50 [4] | IC50 [5] | IC50 [6] | AC50 [7] | AC50 [8]
1 | O=S1(=O)N(CCN2CC=C(c3c[nH]c4cc(F)ccc34)CC2)c2cccc3c2N1CCC3 | 25.1 µM (inconclusive) | > 40 µM (active) | – | – | – | – | – | –
2 | CN(CC(=O)Nc1ccc(Cl)cc1)C(=O)CNC(=O)c1ccc2ccccc2c1 | – | – | 11.1 µM (active) | 26.4 µM (active) | > 100 µM (inactive) | > 100 µM (inactive) | – | –
3 | O=c1c2c3c(sc2nc(N2CCNCC2)n1-c1cccc(Cl)c1)CCCCC3 | – | 13.6 µM (active) | – | – | – | – | – | –
4 | Cc1nc2ccc(NC(=O)c3cc(Cl)ccn3)cc2s1 | – | – | 3.62 µM (active) | 3.79 µM (active) | 86.4 µM (active) | 12.9 µM (active) | – | –
5 | O=C(Nc1ccc(N2CCN(C(=O)c3ccco3)CC2)cc1)C(c1ccccc1)c1ccccc1 | – | > 40 µM (active) | – | – | – | – | – | –
6 | O=C(COC(=O)c1ccc([N+](=O)[O-])s1)NC(=O)NCc1ccccc1 | – | – | 8.47 µM (active) | 13.7 µM (active) | 4.28 µM (active) | 4.59 µM (active) | – | –
7 | Fc1ccccc1SCc1nnc(-c2ccccc2Br)o1 | – | – | 6.47 µM (active) | 17.1 µM (active) | 14.7 µM (active) | 12.1 µM (active) | – | –
8 | Clc1nc(-c2ccccn2)nc2scc(-c3ccccc3)c12 | – | – | 3.74 µM (active) | 7.37 µM (active) | 7.79 µM (active) | 6.7 µM (active) | – | –
9 | Oc1ccc(/C=C/c2ccnc3ccccc23)cc1 | – | – | 9.49 µM (active) | 34.5 µM (active) | > 100 µM (inactive) | > 100 µM (inactive) | – | –
10 | CCCC[C@@H](CN[C@H](C)CNC)NCC1CCC(C(C)(C)C)CC1 (stereo not given in full) | – | 12.7 µM (active) | – | – | – | – | 6.55 µM (active) | 6.4 µM (active)
11 | COc1ccccc1N1CCN(/N=C/c2ccc([N+](=O)[O-])cc2)CC1 | – | – | 2.17 µM (active) | 2.68 µM (active) | > 100 µM (inactive) | 3.64 µM (active) | – | –
